Data set [1] deals with HMLER-shEcad cells. The note with it: cited from earlier work; for IC50: MTT, 72 h incubation.
The subject of data set [2] is HMLER-shEcad mammospheres. Further details: method as in PMID 26806362, PMID 27774561, PMID 28932846. The note with it: 120 h incubation, read-out: Mammosphere IC50; cited from earlier work.
Data set [3] deals with HMLER-shEcad mammospheres. The data set is described as follows: Mammosphere formation assay (number and size of mammospheres). The data set is classed as cell-based, human. The note with it: HMLER-shEcad cells in suspension, treated at respective IC20 value for 5 days. As for the experimental part:
(§1) On day 1, 5000 HMLER-shEcad cells were seeded into each well of a 96-well ultralow-attachment plate. The culture media used was MEGM with B27 (Invitrogen), 20 ng/mL EGF, and 4 μg/mL heparin (Sigma). Compounds of interest were added to the HMLER-shEcad cells at various concentrations (0–133 μM), and the suspensions were incubated for 5 days. On day 6, the mammospheres were imaged and counted using a standard microscope. Afterwhich, TOX8 (Sigma) (20 µL) was added to each well and incubated for 16 h. On day 7, the solutions in each well were transferred to a black 96-well plate and the fluorescence was measured using a plate reader, 590 nm (λex = 560 nm). The arbitrary fluorescence values were normalised with respect to control wells (containing DMSO), and dose–response curves were plotted to determine the IC50 values. Three independent experiments were carried out, with each concentration having three repeats […].

In data set [4] the test system is HMLER cells. The following applies: MTT, 72 h incubation; cited from earlier work.
Data set [5] concerns HMLER-shEcad mammospheres. Kind of data set: Mammosphere viability assay (TOX8). The data set is classed as cell-based, human. The following applies: TOX8, 5 days (120 h) incubation. As for the experimental part: as §1
For data set [6], the system named is HMLER cells. The data set is described as follows: MTT assay, bulk breast cancer cells (HMLER). The following applies: 72 h incubation. Type of data set: cell-based, human. As for the experimental part: (§2) HEK 293T human embryonic kidney cells purchased from American Type Culture Collection (ATCC, Manassas, VA, USA) were grown in DMEM (Dulbecco’s Modified Eagle’s Medium) with FBS (fetal bovine serum, 10%), and penicillin/streptomycin (1%). Human mammary epithelial CSC-depleted HMLER and human mammary epithelial CSC-enriched HMLER-shEcad cells were obtained from Prof. R.A. Weinberg (Whitehead Institute, MIT). These cells were grown in MEGM (Mammary Epithelial Cell Growth Medium) with BPE, hydrocortisone, hEGF, insulin, and gentamicin/amphotericin-B. All of the cells used in this study were cultured at 37 °C within a humidified incubator with a CO2 controller to maintin CO2 levels at 5%.
(§3) On day 1, 5000 cells (of the appropriate cell line) were plated in each well of a 96-well plate. The cells were then left to attach to the bottom of the wells overnight. On day 2, the compounds of interest were added (at different concentrations, 0.2–100 μM). The cells were incubated with the compounds for 72 h. The volume of each well at this stage was 200 μL. If DMSO was used to aid solubilization of the compounds, then the same amount of DMSO was also present in control wells. […] The absorption of each well was measured using a plate reader at 550 nm. […]
On the technique in general: Tetrazolium assays rely on reduction of a dye to a coloured formazan, in cell work by metabolically active cells.

Data set [7] in a line: LogP by shake-flask method with UV-Vis spectroscopy. The data set is classed as physicochemical. The note with it: octanol/water, 100 µM, shaken 24 h, room temperature. As for the experimental part: The shake-flask method in combination with UV-Vis spectroscopy was used to determine the LogP values of 2–5. Briefly, to a suspension of water (500 μL) and octanol (500 μL), 2–5 was added, giving a final concentration of 100 µM. The mixture was shaken for 24 h (room temperature). Using centrifugation, the water and octanol layers were separated and the concentration of 2–5 in each layer was determined using UV-Vis spectroscopy.

A further data set has as its system HEK 293T cells. Kind of data set: MTT assay, human embryonic kidney (HEK 293T) cells. The data set is classed as cell-based. The following applies: for IC50: MTT, 72 h incubation. As for the experimental part: as §2
On day 1, 5000 cells (of the appropriate cell line) were plated in each well of a 96-well plate. The cells were then left to attach to the bottom of the wells overnight. On day 2, the compounds of interest were added (at different concentrations, 0.2–100 μM). The cells were incubated with the compounds for 72 h. The volume of each well at this stage was 200 μL. If DMSO was used to aid solubilization of the compounds, then the same amount of DMSO was also present in control wells. On day 5, a solution of 3-(4,5-dimethylthiazol-2-yl)-2,5-diphenyltetrazolium bromide (MTT) (4 mg/mL) predissolved in PBS was added to each well of the 96-well plate (20 μL). After a further 4 h incubation, the media/MTT solution was removed and the resultant purple formazan crystals were dissolved in DMSO (200 μL). The absorption of each well was measured using a plate reader at 550 nm. The absorption values were normalised according to the control wells and dose—response curves were plotted to determine the IC50 values. Three independent experiments were carried out, with each concentration having six repeats (n = 18).

The test system of data set [8] is HMLER-shEcad cells. Kind of data set: MTT assay, breast CSC-like cells (HMLER-shEcad). Type of data set: cell-based, human. The following applies: 72 h incubation. As for the experimental part:
as §2, §3

The test system of data set [9] is HMLER-shEcad mammospheres. Further details: method as in PMID 26865551. The following applies: previous work; cited from earlier work.
A short description of data set [10]: UV-Vis stability study in PBS:DMSO. The following applies: 50 µM in PBS:DMSO (200:1), 24 h at 37 °C. Type of data set: physicochemical. The text has this:
The shake-flask method was used to determine the lipophilicity (LogP) of 2–5. This involves determining the amount of a given compound partitioned between octanol and water using UV-Vis spectroscopy. […] The size of the polypyridyl ligand has a clear effect on lipophilicity, with LogP values increasing according to the following order; 2 < 3 < 4 < 5. The hydrophobicity of 2–5 implies that the zinc(II) complexes are likely to easily enter cells. […] The metal-perturbed π-π* and metal-to-ligand charge-transfer (MLCT) absorption bands of 2 (50 µM) in PBS:DMSO (200:1) were constant for 24 h at 37 °C (Figure S7), indicative of stability.

The nature of data set [11]: UV-Vis stability study in MEGM/DMSO. The data set is classed as physicochemical. The note with it: 50 µM in MEGM/DMSO (200:1), 24 h at 37 °C.

Where two headings read alike, the source gives them in different places. Bounds are passed on as bounds.

For orientation: IC50 means the concentration that inhibits the measured activity by half. On to `CC[C@@H](C(=O)[C@@H](C)[C@@H](O)[C@H](C)[C@@H]1O[C@@H]([C@@H](CC)C(=O)O)CC[C@@H]1C)[C@H]1O[C@]2(C=C[C@@H](O)[C@]3(CC[C@@](C)([C@H]4CC[C@](O)(CC)[C@H](C)O4)O3)O2)[C@H](C)C[C@@H]1C` [salinomycin], for which the IC50 with HMLER-shEcad cells [1] was 4.2 ± 0.3 µM; in [2] it was 18.5 ± 1.5 µM; in the data set on HMLER cells [4], 11.4 ± 0.4 µM. In data set [3], the “decrease in mammospheres formed” value was determined as 37%.

For orientation: LogP means the decadic logarithm of the partition coefficient of the neutral form, usually between octanol and water. Regarding “Zn(indomethacin)2(1,10-phenanthroline) [Compound 3]”, the IC50 in data set [5] turned out to be 44.1 ± 0.6 µM; with HMLER cells [6] it was 1.1 ± 0.05 µM; in the data set with HEK 293T cells it was 2.3 ± 0.1 µM; in the data set with HMLER-shEcad cells [8], 1.1 ± 0.08 µM. Moreover, in data set [7], the LogP turned out to be 0.97.

`N.N.O=C([O-])C1(C(=O)[O-])CCC1.[Pt+2]` [carboplatin]: the IC50 is 72.3 ± 7.9 µM with HMLER-shEcad cells [1] and 67.3 ± 2.8 µM in the data set with HMLER cells [4].

Take `COc1ccc2c(c1)c(CC(=O)O)c(C)n2C(=O)c1ccc(Cl)cc1` [indomethacin]: in the data set with HMLER-shEcad cells [1] (previous work), the “toxicity towards CSC-like cells” value was “non-toxic”. The mammosphere inhibitory effect entry in [9] is “poor”.

“Zn(indomethacin)2(2,2′-bipyridine) [Compound 2]”: the IC50 in [5] was > 133 µM; in the data set with HMLER cells [6] it was 1.2 ± 0.02 µM; in the data set with HEK 293T cells, 20 ± 3.9 µM; in the data set on HMLER-shEcad cells [8], 0.7 ± 0.04 µM. The “stability: metal-perturbed π-π* and MLCT absorption bands” value in [10] is recorded as “constant”. Also, the “stability: UV-Vis absorption bands” value in data set [11] was “unaltered”. In [7], the LogP is recorded as 0.89. Further, in the data set with HEK 293T cells (ratio of IC50 values, p < 0.05), the “fold less potent toward HEK 293T cells than HMLER and HMLER-shEcad cells” value is “up to 17 fold”.

With `N.N.[Cl][Pt][Cl]` [cisplatin], the IC50 with HMLER-shEcad cells [1] was 4.9 ± 0.4 µM; with HMLER cells [4], 3.4 ± 0.5 µM.
